The source of these data is ChEMBL document CHEMBL6127126, “Closing the Design-Make-Test-Analyze Loop: Interplay between Experiments and Predictions Drives PROTACs Bioavailability” (J Med Chem, 2024).

In general, logD refers to lipophilicity at a set pH, counting ionised and neutral species. Broadly, the bioavailability is the share of a dose that reaches the circulation, judged against a reference dose that is usually intravenous. High values mean much systemic uptake, low ones little systemic uptake.

A short description of data set [1]: Lipophilicity, logD of compound in octanol-water at pH 7.4 by shake-flask method. It is filed as physicochemical.
The nature of data set [2]: Oral bioavailability in C57 BL/6 or CD-1 mouse at 1 mg/kg measured upto 24 hrs by LC-MS/MS analysis. The data set is classed as ADME, organism-based. Particulars: in vivo.
A short description of data set [3]: Lipophilicity, logD of compound in octanol-water at pH 7.4 by reverse phase HPLC analysis. It is filed as physicochemical.

As to `Cc1ncsc1-c1ccc([C@H](C)NC(=O)[C@@H]2C[C@@H](O)CN2C(=O)[C@@H](NC(=O)CCCCCC(=O)N2CCN(CC[C@H](CSc3ccccc3)Nc3ccc(S(=O)(=O)NC(=O)c4ccc(N5CCN(CC6=C(c7ccc(Cl)cc7)CCC(C)(C)C6)CC5)cc4)cc3S(=O)(=O)C(F)(F)F)CC2)C(C)(C)C)cc1` [DT-2216], the results for the log distribution coefficient (logD) in data set [1] (read-out: logD) and in data set [3] (read-out: logD) were 3.9 and 7.3, respectively. Further, the bioavailability in data set [2] was 0.07%.

As for `C=CCc1ccccc1OCC(O)CNC(C)C` (stereo not given) [ALPRENOLOL], the logD in data set [3] (read-out: logD) came out at 1.5.

Regarding `CN(C)CCC=C1c2ccccc2C=Cc2ccccc21` [CYCLOBENZAPRINE], the logD in data set [3] (read-out: logD) came to 3.1.

For the molecule `O=C1CC[C@H](N2Cc3cc(N4CCN(CC5CCN(c6ccc([C@@H]7c8ccc(O)cc8CC[C@@H]7c7ccccc7)cc6)CC5)CC4)ccc3C2=O)C(=O)N1` [VEPDEGESTRANT], the values for the logD in data set [1] (read-out: logD) and in data set [3] were 4.6 and 5.7, respectively. Also, the bioavailability in data set [2] came out at 58.5%.

As to `CC1(C)CCC(CN2CCN(c3ccc(C(=O)NS(=O)(=O)c4ccc(NCC5CCOCC5)c([N+](=O)[O-])c4)c(Oc4cnc5[nH]ccc5c4)c3)CC2)=C(c2ccc(Cl)cc2)C1` [VENETOCLAX], in data set [3] (read-out: logD), the log distribution coefficient (logD) is 7.9.

With `CCOC(=O)C1=C(C)NC(C)=C(C(=O)OC)C1c1cccc(Cl)c1Cl` (stereo not given) [FELODIPINE], the logD in data set [3] is listed as 5.2.

For the molecule `Cn1c(=O)n(C2CCC(=O)NC2=O)c2cccc(C#CCOC3CCN(C[C@H]4CC[C@H](n5cc(NC(=O)c6cnn7ccc(N8C[C@H]9C[C@@H]8CO9)nc67)c(C(F)F)n5)CC4)CC3)c21` (stereo not given in full) [KT-474], the results for the logD in data set [1] (read-out: logD) and in data set [3] were 3.5 and 2.4, respectively. Moreover, the bioavailability in data set [2] worked out at 23.7%.

Consider `COc1cc(O[C@H]2C(C)(C)[C@H](NC(=O)c3ccc(N4CCC(CN5CCN(c6ccc(C(=O)N[C@H]7CCC(=O)NC7=O)c(F)c6)CC5)CC4)cc3)C2(C)C)ccc1C#N` [LUXDEGALUTAMIDE], for which the logD in data set [1] (read-out: logD) was 3.7; in data set [3] (read-out: logD), 5. The bioavailability in data set [2] was found to be 57.6%.

Take `Cc1ncsc1-c1ccc(CNC(=O)[C@@H]2C[C@@H](O)CN2C(=O)[C@@H](NC(=O)C2(F)CC2)C(C)(C)C)c(OCCOc2ccc(CN3CCN(c4cc(-c5ccccc5O)nnc4N)CC3)cc2)c1`: the logD in data set [1] (read-out: logD) was determined as 3.1; in data set [3] (read-out: logD), 4.2. The molecule also returned a bioavailability in data set [2] of 2.7%.

`CC(=O)CC(c1ccccc1)c1c(O)c2ccccc2oc1=O` (stereo not given) [WARFARIN]: the logD in data set [3] (read-out: logD) was 0.78.

On to `COC(=O)C1=C(C)NC(C)=C(C(=O)OCCN(C)Cc2ccccc2)C1c1cccc([N+](=O)[O-])c1` (stereo not given) [NICARDIPINE], for which the pH-dependent lipophilicity (logD) in data set [3] (read-out: logD) turned out to be 5.

Regarding `Cc1ncsc1-c1ccc(CNC(=O)[C@@H]2C[C@@H](O)CN2C(=O)[C@@H](NC(=O)COCCOCCOCCNC(=O)C[C@@H]2N=C(c3ccc(Cl)cc3)c3c(sc(C)c3C)-n3c(C)nnc32)C(C)(C)C)cc1`, the logD in data set [1] was 3.8; in data set [3] (read-out: logD), 3.4. This molecule also came in with a bioavailability in data set [2] of 0.16%.

For the molecule `N#Cc1ccc(O[C@H]2CC[C@H](NC(=O)c3ccc(N4CCC(CN5CCN(c6cc7c(cc6F)C(=O)N(C6CCC(=O)NC6=O)C7=O)CC5)CC4)nn3)CC2)cc1Cl` (stereo not given in full) [BAVDEGALUTAMIDE], the figures for the logD in data set [1] (read-out: logD) and in data set [3] (read-out: logD) were 4.8 and 5, respectively. In addition, the bioavailability in data set [2] was determined as 64.6%.

For the molecule `COC(=O)N[C@H](C(=O)N[C@@H](Cc1ccccc1)[C@@H](O)CN(Cc1ccc(-c2ccccn2)cc1)NC(=O)[C@@H](NC(=O)OC)C(C)(C)C)C(C)(C)C` [ATAZANAVIR], the logD in data set [3] amounted to 4.2.

On to `CC1(C)[C@H](NC(=O)c2ccc(N3CCN(CC4CCN(c5ccc6c(c5)C(=O)N(C5CCC(=O)NC5=O)C6=O)CC4)CC3)cc2)C(C)(C)[C@H]1Oc1ccc(C#N)c(Cl)c1` (stereo not given in full), for which the logD in data set [1] (read-out: logD) amounted to 4.6; in data set [3] (read-out: logD) it was 6.2. The same molecule showed a bioavailability in data set [2] of 61.4%.

With `CC(C)(C)NC(=O)[C@@H]1C[C@@H]2CCCC[C@@H]2CN1C[C@@H](O)[C@H](Cc1ccccc1)NC(=O)[C@H](CC(N)=O)NC(=O)c1ccc2ccccc2n1`, the logD in data set [3] (read-out: logD) was found to be 4.5.

On to `Cc1nc(CCC(=O)NCCCCC(=O)N[C@H](C(=O)N2C[C@H](O)C[C@H]2C(=O)NCc2ccc(-c3scnc3C)cc2)C(C)(C)C)ccc1-c1cnc(NCc2c(Cl)ccc3c2CCO3)n2cnnc12`, for which the logD in data set [1] (read-out: logD) turned out to be 3.8; in data set [3] (read-out: logD), 2.5. The bioavailability in data set [2] was determined as 0%.
